This note sets out measurements from patent US8889876B2, “Histone deacetylase inhibitors and uses thereof” (Jiangsu Hengyi Pharmaceutical Co., Ltd., priority 2008, dated 2014).

Format in all cases: cell-based
The test system of experiment [1] is Hut78 T-cell Leukemia cell. Nature of the experiment: CCK-8 proliferation inhibition, Hut78. The settings on record: for inhibition at 10 µM / inhibition at 100 µM: Homo sapiens, read-out: Hut-78 (inhibition %); for inhibition at 10 µM: HuT78, 10 μM; for inhibition at 100 µM: HuT78, 100 μM. On the procedure:
(§1) Detecting the inhibition rate of the compound concentrations of 100 μM and 10 μM to Hut78 T-cell Leukemia cell, Jurkat E6-1 human T-cell lymphoma, PANC-1 human pancreatic cancer cells, A549 human lung cancer cells, K562 human chronic myeloid leukemia cells, Hep3B2.1-7 human liver cancer cells, MDA-MB-435s human breast cancer cells, Colo320 human rectal cancer cells and PC-3 human prostate cancer using CCK-8 method.

For experiment [2], the system named is Jurkat E6-1 human T-cell lymphoma. Nature of the experiment: CCK-8 proliferation inhibition, Jurkat E6-1. To be noted: for inhibition at 10 µM / inhibition at 100 µM: Homo sapiens; for inhibition at 10 µM: Jurkat E6.1, 10 μM; for inhibition at 100 µM: Jurkat E6.1, 100 μM. As for the experimental part: as §1
Experiment [3] deals with PC-3 human prostate cancer. In words: CCK-8 proliferation inhibition, PC-3. The settings on record: CCK-8 method; for inhibition at 10 µM / inhibition at 100 µM: Homo sapiens. As for the experimental part: as §1
In experiment [4] the test system is Hep3B2.1-7 human liver cancer cells. In words: CCK-8 proliferation inhibition, Hep3B2.1-7. The settings on record: CCK-8 method; for inhibition at 10 µM / inhibition at 100 µM: Homo sapiens, Hep3B. As for the experimental part: as §1
In experiment [5] the test system is PANC-1 human pancreatic cancer cells. Nature of the experiment: CCK-8 proliferation inhibition, PANC-1. To be noted: for inhibition at 10 µM / inhibition at 100 µM: Homo sapiens; for inhibition at 10 µM: PANC-1, 10 μM; for inhibition at 100 µM: PANC-1, 100 μM. As for the experimental part: as §1
The test system of experiment [6] is Colo320 human rectal cancer cells. Nature of the experiment: CCK-8 proliferation inhibition, Colo320. The settings on record: CCK-8 method; for inhibition at 10 µM / inhibition at 100 µM: Homo sapiens, COLO 320. On the procedure:
as §1

The subject of experiment [7] is K562 human chronic myeloid leukemia cells. In words: CCK-8 proliferation inhibition, K562. The settings on record: for inhibition at 10 µM / inhibition at 100 µM: Homo sapiens; for inhibition at 10 µM: K562, 10 μM; for inhibition at 100 µM: K562, 100 μM. On the procedure: as §1
Experiment [8] has as its system A549 human lung cancer cells. Nature of the experiment: CCK-8 proliferation inhibition, A549. To be noted: CCK-8 method; for inhibition at 10 µM / inhibition at 100 µM: Homo sapiens, A549. As for the experimental part:
as §1

Experiment [9] relates to MDA-MB-435s human breast cancer cells. In words: CCK-8 proliferation inhibition, MDA-MB-435s. The settings on record: CCK-8 method; for inhibition at 10 µM / inhibition at 100 µM: Homo sapiens, MDA-MB-435S. On the procedure:
as §1

Turning to `Nc1cnccc1NC(=O)c1ccc(CNC(=O)/C=C/c2cccnc2)cc1` [V-43], the inhibition at 10 µM was determined as 25.7% in experiment [1]; 69.1% in [2]; 88% in experiment [3] (compound concentration 10 μM); 22.5% in experiment [4] (compound concentration 10 μM); 3.1% in experiment [5]; 19.1% in [6] (compound concentration 10 μM). In addition, the inhibition at 10 µM came to 13.8% in experiment [7], 41.2% in experiment [8] (compound concentration 10 μM) and 18.8% in experiment [9] (compound concentration 10 μM). The inhibition at 100 µM in experiment [1] came out at 49.6%; in experiment [2], 96.8%; in experiment [3] (compound concentration 100 μM), 94.5%; in experiment [4] (compound concentration 100 μM), 60.5%; in experiment [5] it was 35.9%; in experiment [6] (compound concentration 100 μM), 59.4%. Moreover, the inhibition at 100 µM in [7] stood at 60.8%; in experiment [8] (compound concentration 100 μM), 85.5%; in [9] (compound concentration 100 μM), 86.4%.
As to `Nc1ncccc1NC(=O)c1ccc(CNC(=O)/C=C/c2ccc3ccccc3c2)cc1` [V-46, N-(2-amino-3-pyridyl)-4-(2-naphthylacryloylaminomethyl)benzamide], the inhibition at 10 µM is 16.4% in experiment [1]; 14.8% in experiment [2]; -1.7% in [3] (compound concentration 10 μM); 17.5% in experiment [4] (compound concentration 10 μM); 8.1% in [5]; 13.7% in [6] (compound concentration 10 μM). Further, the inhibition at 10 µM in experiment [7] stood at 27.3%; in [8] (compound concentration 10 μM), 7.7%; in [9] (compound concentration 10 μM), 16.4%. Besides, the inhibition at 100 µM in [1] was 13.4%; in [2], 1.9%; in experiment [3] (compound concentration 100 μM), -2.4%; in experiment [4] (compound concentration 100 μM), -5%; in experiment [5], 0.4%; in experiment [6] (compound concentration 100 μM) it was -9%. Moreover, the inhibition at 100 µM worked out at 18.9% in experiment [7], 4.1% in [8] (compound concentration 100 μM) and 4.1% in experiment [9] (compound concentration 100 μM).
`Nc1ncccc1NC(=O)c1ccc(CNC(=O)CCc2ccccc2)cc1` [V-48, N-(2-amino-3-pyridyl)-4-[(3-phenylpropionyl)aminomethyl]benzamide]: the inhibition at 10 µM in [1] was -0.4%; in [2], 9.7%; in experiment [3] (compound concentration 10 μM) it was -16.4%; in [4] (compound concentration 10 μM) it was -14%; in [5], -2.2%; in experiment [6] (compound concentration 10 μM) it was 2.9%. Moreover, the inhibition at 10 µM in experiment [7] was 20%; in experiment [8] (compound concentration 10 μM) it was 3.9%; in [9] (compound concentration 10 μM), 10%. Moreover, the inhibition at 100 µM in [1] is 47.4%; in [2] it was 61.9%; in experiment [3] (compound concentration 100 μM) it was 14.8%; in [4] (compound concentration 100 μM) it was 20.5%; in experiment [5] it was -1.8%; in experiment [6] (compound concentration 100 μM) it was 17.9%. The inhibition at 100 µM in [7] was 57.2%; in experiment [8] (compound concentration 100 μM), 9.8%; in [9] (compound concentration 100 μM), 26.6%.
For the molecule `Nc1cnccc1NC(=O)c1ccc(CNC(=O)CCc2ccccc2)cc1` [V-49], the inhibition at 10 µM in experiment [1] is 2.3%; in experiment [2], 28.4%; in [3] (compound concentration 10 μM) it was 28.3%; in experiment [4] (compound concentration 10 μM), 11%; in experiment [5], -6.1%; in experiment [6] (compound concentration 10 μM), -2.5%. The inhibition at 10 µM in experiment [7] was 22.1%; in experiment [8] (compound concentration 10 μM), -9.5%; in experiment [9] (compound concentration 10 μM), 10.3%. Also, the inhibition at 100 µM was 54.4% in [1]; 93.7% in experiment [2]; 53.8% in experiment [3] (compound concentration 100 μM); 63.4% in experiment [4] (compound concentration 100 μM); 7.3% in [5]; 33.8% in [6] (compound concentration 100 μM). Moreover, the inhibition at 100 µM in experiment [7] worked out at 71%; in experiment [8] (compound concentration 100 μM), 39.9%; in experiment [9] (compound concentration 100 μM) it was 51.9%.
In the case of `Cc1ccc(CCC(=O)NCc2ccc(C(=O)Nc3cccnc3N)cc2)cc1` [V-50, N-(2-amino-3-pyridyl)-4-[3-(4-methylphenyl)propionylaminomethyl]benzamide], the inhibition at 10 µM in experiment [1] was 0.4%; in experiment [2], 8.9%; in [3] (compound concentration 10 μM), 5.5%; in [4] (compound concentration 10 μM) it was -0.5%; in experiment [5], 10.2%; in [6] (compound concentration 10 μM), 6.8%. For the same molecule, the inhibition at 10 µM is 23.8% in experiment [7], 8.6% in experiment [8] (compound concentration 10 μM) and 14.7% in [9] (compound concentration 10 μM). For the same molecule, the inhibition at 100 µM in experiment [1] is 46.9%; in experiment [2], 75.9%; in experiment [3] (compound concentration 100 μM), -3.8%; in experiment [4] (compound concentration 100 μM), 23.5%; in experiment [5], 12.9%; in experiment [6] (compound concentration 100 μM), 27.4%. In addition, the inhibition at 100 µM in experiment [7] came to 75.7%; in [8] (compound concentration 100 μM), 14.2%; in experiment [9] (compound concentration 100 μM), 36.9%.
`Cc1ccc(CCC(=O)NCc2ccc(C(=O)Nc3ccncc3N)cc2)cc1` [V-51]: the inhibition at 10 µM was -0.5% in [1]; 14.8% in experiment [2]; 21.4% in experiment [3] (compound concentration 10 μM); 24.9% in experiment [4] (compound concentration 10 μM); 1.4% in experiment [5]; -5.7% in [6] (compound concentration 10 μM). The inhibition at 10 µM in experiment [7] is -2.4%; in [8] (compound concentration 10 μM), -8.9%; in [9] (compound concentration 10 μM), 14.1%. For the same molecule, the inhibition at 100 µM is 35.2% in [1]; 42.4% in experiment [2]; 45% in experiment [3] (compound concentration 100 μM); 26.9% in experiment [4] (compound concentration 100 μM); -6.1% in [5]; 7.9% in experiment [6] (compound concentration 100 μM). Further, the inhibition at 100 µM was 53.5% in experiment [7], -3.2% in [8] (compound concentration 100 μM) and 31.3% in [9] (compound concentration 100 μM).
As to `COc1ccc(CCC(=O)NCc2ccc(C(=O)Nc3cccnc3N)cc2)cc1` [V-52, N-(2-amino-3-pyridyl)-4-[3-(4-methoxyphenyl)propionylaminomethyl]benzamide], the inhibition at 10 µM was 6.5% in experiment [1]; 7.6% in experiment [2]; -7.4% in experiment [3] (compound concentration 10 μM); 19% in experiment [4] (compound concentration 10 μM); 13.3% in experiment [5]; 8% in experiment [6] (compound concentration 10 μM). In addition, the figures for the inhibition at 10 µM in experiment [7], in experiment [8] (compound concentration 10 μM) and in experiment [9] (compound concentration 10 μM) were 29%, 9.8% and 13.9%, respectively. Moreover, the inhibition at 100 µM in experiment [1] came out at 50.8%; in [2] it was 73.8%; in [3] (compound concentration 100 μM) it was 24.7%; in experiment [4] (compound concentration 100 μM) it was 78.6%; in [5] it was 17.7%; in experiment [6] (compound concentration 100 μM), 17.7%. Besides, the inhibition at 100 µM in [7] stood at 67.3%; in [8] (compound concentration 100 μM), 9.9%; in experiment [9] (compound concentration 100 μM) it was 22.8%.
For the molecule `COc1cc(CCC(=O)NCc2ccc(C(=O)Nc3ccnc(N)c3)cc2)cc(OC)c1OC` [V-55, N-(2-amino-4-pyridyl)-4-[3-(3,4,5-methoxyphenyl)propionylaminomethyl]benzamide], the “Hut-78 (inhibition %)” value in experiment [1] (10 μM) was −5.5%; in experiment [1] (100 μM), −2.4%. The “Jurkat E6-1 (inhibition %)” value in [2] (10 μM) worked out at 10.6%; in experiment [2] (100 μM), 0.6%. For the same molecule, the “PC-3 (inhibition %)” value is given as 13.3% in experiment [3] (compound concentration 10 μM) and 10.9% in experiment [3] (compound concentration 100 μM). The “Hep3B (inhibition %)” value in experiment [4] (compound concentration 10 μM) came out at 21.7%; in experiment [4] (compound concentration 100 μM), 7.2%. Besides, the “PANC-1 (inhibition %)” value in experiment [5] (10 μM) is reported as −7.5%; in experiment [5] (100 μM) it was −6.1%. Besides, the figures for the “Colo320 (inhibition %)” value in experiment [6] (compound concentration 10 μM) and in [6] (compound concentration 100 μM) were −11.2% and −2.8%, respectively. Also, the “K562 (inhibition %)” value in experiment [7] (10 μM) is listed as −12.8%; in experiment [7] (100 μM), −17.4%. The entries for the “A549 (inhibition %)” value in experiment [8] (compound concentration 10 μM) and in experiment [8] (compound concentration 100 μM) were −16.5% and −15.3%, respectively. Moreover, the “435s(inhibition %)” value in experiment [9] (compound concentration 10 μM) came out at 6.5%; in experiment [9] (compound concentration 100 μM) it was 4.9%.
